Results on 2 compounds are retold here after patent US20250171744A1, “METHODS OF REPROGRAMMING SOMATIC CELLS AND MATERIALS RELATED THERETO” (CITY OF HOPE, priority 2019, published 2025).

Entries after “also recorded” stand apart in the source; their conditions may differ.

Data set [1] relates to MTX/PTX treated and SSEA4 positive cells. As to the kind of experiment: Cardiomyocyte marker expression in cardiomyocytes differentiation medium (FIG. 31). It counts as cell-based, human. On the procedure: MTX/PTX treated and SSEA4 positive cells were maintained on Matrigel-coated 6-well plates in mTeSR1 medium. To induce differentiation, cells with EB-like morphology were dissociated with Accutase (Invitrogen) at 37° C. for 5 minutes and then single cell suspension was seeded onto a Matrigel-coated cell-culture dish at 100,000 cell/cm^2 in mTeSR1 supplemented with 5 μM ROCK inhibitor (Y-27632) for 24 hours. The cells then were cultured in mTeSR1 medium, which was changed daily. Next, 8 μl of 36 mM CHIR99021 were added into 24 ml RPMI/B27-insulin medium to make 12 μM CHIR99021 RPMI/B27-insulin medium and 2-ml of this were added to each well after the old mTeSR1 medium was removed. Exactly 24 hours after adding CHIR, the medium was replaced with 2 ml room temperature RPMI/B27-insulin. The plate was put back into the 37° C., 5% CO2 incubator. 72 hours post addition of CHIR99021, 1 ml medium from each well was removed and the remaining 1-ml was supplemented with 1-ml RPMI/B27-insulin with 5 μM IWP2 (WNT pathway inhibitor). After 48 hours, the medium was replaced with fresh RPMI/B27-insulin and this was incubated at 37° C., 5% CO2 incubator. After this, every 2-days, the old medium was removed from each well of the 12-well plate and 2 ml/well room temperature RPMI/B27 medium was added and incubated at 37° C., 5% CO2. Spontaneous contraction should occur by day 14 and spontaneous beating can be maintained for several weeks. […] The expression of the key cardiomyocyte markers, Nkx2, which is an early cardiac transcriptional factor, indicative of cardiac progenitor phenotype, and cTNT, which is cardiac troponin T, a muscle contractility regulatory protein, indicative of a mature cardiac phenotype, were tested.

In the next data set the test system is HF57. As to the kind of experiment: Embryoid body formation from SSEA4 positive sorted cells (FIG. 27). It counts as cell-based, human. To be noted: treated 7 or more days, low methionine, mTeSR Plus + HT, after 15-days. Here is the method: HEK293T and HF57 were treated with MTX and PTX for 7 or more days in low methionine condition. SSEA4 positive cells were sorted using cell sorter and maintained on mTeSR™ Plus medium supplemented with HT.

For a further data set, the system named is 293T cells. As to the kind of experiment: Global DNA methylation, 5mC ELISA (FIG. 18). To be noted: 500 nM MTX, 1 μM PTX; 7-days; vs untreated cells. It counts as cell-based, human. Here is the method:
Equal amount of DNA (100 ng) was analyzed with 5mC enzyme-linked immunosorbent assay (ELISA) (EpiGentek). […] Error bars represent the standard error for at least three independent experiments and three technical replicates.
Global DNA methylation measurement Global 5-methylcytosine (5-mC) levels were quantified using the MethylFlash Methylated DNA Quantification Kits (Epigentek, Farmingdale, NY, USA). The DNA concentration was determined using the Qubit Assay (Thermo Fisher Scientific) according to the manufacturer's protocol. Briefly, 100 ng of DNA was used for incubation with both capture and detection antibodies using MethylFlash Methylated DNA Quantification Kit (Colorimetric) from Epigentek. Subsequently, measurements of the absorbance of the sample at 450 nm in a microplate spectrophotometer (BioTek Instruments, Winooski, VT, USA) were performed with the percentage of the whole genome 5-mC calculation according to manufacturer's instructions. Genomic methylation levels in study samples were expressed as percentage of 5-mC.
MTX and PTX are antifolates that inhibit enzymes (particularly thymidylate synthase and dihydrofolate reductase) involved in folate metabolism and purine and pyrimidine synthesis (100-103). […] Equal amount of gDNA (100 ng) was analyzed with 5mC enzyme-linked immunosorbent assay (ELISA) (EpiGentek).
In general terms: In an ELISA, binding on a coated surface is turned into a signal by an enzyme label.

A short description of data set [2]: Cell viability after MTX or PTX treatment (FIG. 17). It counts as cell-based. To be noted: human; for viability: post MTX or PTX treatment; for viability at 5 days: HEK293T cells, after 5-days of MTX or PTX treatment, read-out: viable cells. On the procedure: Call quantification, imaging, and statistical analysis: Cells were quantified using a Cellometer Auto T4 counting chamber after mixing in a 1:1 ratio with Trypan blue (MilliporeSigma) to exclude dead cells. The average of 2 separate counts was taken to calculate the cell numbers. All live cell imaging was conducted using an EVOS FL Auto microscope (Thermo Fisher Scientific). All statistical analysis was performed using a paired Student's t test with Bonferroni correction or 1-sample Student's t test. Values of P<0.05 were considered significant.

The test system of data set [3] is human embryonic kidney cells (293T). As to the kind of experiment: Cell proliferation under prolonged MTX/PTX application, with or without HT (FIG. 16). To be noted: for cell proliferation: prolonged, controlled application, 5% dialyzed-FBS DMEM, 500 nM MTX for 7-days. The class given is cell-based. Here is the method: The cells were grown in 5% dialyzed-FBS DMEM medium. 293T cells were treated with 500 nM MTX, and HF57 cells and HDF cells were treated with 1 μM MTX for 7-days. Because inhibition of DHFR and TS by folate antagonists (MTX, PTX) results in a deficiency in the cellular pools of thymidylate and purines and thus a decrease in nucleic acid synthesis, sodium hypoxanthine (10 mM) and thymidine (1.6 mM) were added to the medium to overcome the effects of MTX and PTX. […] The cells were harvested for DNA/RNA isolation and analyzed for gene expression and DNA methylation.
MTX and PTX are antifolates that inhibit enzymes (particularly thymidylate synthase and dihydrofolate reductase) involved in folate metabolism and purine and pyrimidine synthesis (100-103). Since these compounds are competitive inhibitors of […], these compounds were exogenously applied to the WT (HEK 293T and HF57) cells. As shown in FIGS. 16-17, application of MTX and PTX to the normal growing WT cells produced the phenotypes similar to the FPGS^ko. Several concentrations of MTX ranging from 75 nM to 500 nM were tested. The impact of MTX depended on the cell lines, exposure time, and the supplemental media. A concentration as low as 75 nM achieved similar results when a lower concentration of FBS was used, and the best results for 293T cells were obtained using MTX at a concentration ranging between 200 nM and 500 nM. Further, the pharmacological impacts of folate inhibitors on global DNA methylation were examined. 293T (control) cells were treated with 500 nM MTX and 1 μM PTX for at least 7 days before harvesting the cells and isolating the genomic DNA (gDNA). Equal amount of gDNA (100 ng) was analyzed with 5mC enzyme-linked immunosorbent assay (ELISA) (EpiGentek).

In data set [4] the test system is MTX/PTX treated, SSEA4 positive cells. Put plainly: Neural differentiation (FIG. 30). It counts as cell-based, human. To be noted: neural differentiation medium, laminin coated plates, 10-15-days. On the procedure: For neural differentiation, MTX/PTX treated, SSEA4 positive cells were initially grown onto Matrigel-coated 6-well plates in mTeSR1 medium. To induce neural differentiation, the cells were dissociated and passaged onto laminin (20 μg ml−1; Sigma-Aldrich, USA) coated plates and grown in Neurobasal medium (Thermo Fisher Scientific, USA) or RPMI1640 medium (Gibco, USA) for 10-15-days at 37° C./5% CO2. The medium was supplemented with 1% serum free B-27 (Gibco, USA), 1% Glutamax (Gibco, USA), 1% NEAA (Gibco, USA), and 1% penicillin/streptomycin (Gibco, USA).

`Nc1nc2[nH]cc(CCc3ccc(C(=O)N[C@@H](CCC(=O)O)C(=O)O)cc3)c2c(=O)[nH]1` [PTX, pemetrexed]: in data set [1], the “expression of Nkx2” value is “significantly up-regulated” and the “expression of cTNT” value is listed as “significantly up-regulated”. For the same compound, in the data set with HF57, the embryoid body formation entry is “start forming embryoid bodies”. Moreover, the “global DNA methylation (5mC content)” value in the data set on 293T cells is “significantly lower levels of DNA methylation; also recorded: significant reduction in global DNA methylation”. In data set [2] (HDF fibroblast cell line), this compound displayed a viability of 60 to 75%. In data set [2], the viability at 5 days lay in the range of 20 to 25%. The viability in data set [2] (HF57 fibroblast cell line) fell in the range of 60 to 75%. The cell proliferation result in data set [3] is “reduced cell proliferation”. In addition, the “differentiation into neural cells” value in data set [4] was “can differentiate into neural cells”.
`CN(Cc1cnc2nc(N)nc(N)c2n1)c1ccc(C(=O)N[C@@H](CCC(=O)O)C(=O)O)cc1` [MTX, methotrexate]: in data set [1], the “expression of Nkx2” value is “significantly up-regulated” and the “expression of cTNT” value was “significantly up-regulated”. The embryoid body formation result in the data set with HF57 is reported as “start forming embryoid bodies”. In addition, the “global DNA methylation (5mC content)” value with 293T cells was “significantly lower levels of DNA methylation; also recorded: significant reduction in global DNA methylation”. Further, the viability in data set [2] (HDF fibroblast cell line) was 60 to 75%. In addition, the viability at 5 days in data set [2] lay within 20 to 25%. Also, the viability in data set [2] (HF57 fibroblast cell line) was in the range of 60 to 75%. Moreover, the cell proliferation entry in data set [3] is given as “reduced cell proliferation”. Also, the “concentration as low as which achieved similar results” value in data set [3] (when a lower concentration of FBS was used) is reported as 75 nM. The “differentiation into neural cells” value in data set [4] is listed as “can differentiate into neural cells”.
